From ChEMBL document CHEMBL3885861, “Open TG-GATES”

Species on record: Rattus norvegicus
Test: Open TG-GATES - Regimen: Daily Repeat
Format: toxicity, organism-based, Sprague-Dawley
Set-up: regimen Daily Repeat, gender Male, age 6 weeks
Settings: in vivo, po, 75 mg/kg, route gavage, dose level High; for APTT / Bas / Eos / Fbg / Hb / Ht / Lym / MCH / MCHC / MCV / Mono / Neu / PT / Plat / RBC / Ret / WBC: tissue Blood; for KIDNEY_L / KIDNEY_R / KIDNEY_TOTAL: tissue Kidney; for LIVER: tissue Liver; for A/G / ALP / ALT / AST / BUN / CRE / Ca / Cl / DBIL / GLC / IP / K / LDH / Na / PL / RALB / TBIL / TC / TG / TP / gamma-GTP: tissue Plasma

NC1=NC(=O)C(c2ccccc2)O1 (configuration not stated) [PEMOLINE]
TERMINAL_BW (72 h, time 3 day): 210.2 g
APTT (72 h, time 3 day): 16.1 s
Bas (72 h, time 3 day): 0%
Eos (72 h, time 3 day): 1%
Fbg (72 h, time 3 day): 378.8 mg/dL
Hb (72 h, time 3 day): 13.2 g/dL
Ht (72 h, time 3 day): 38.4%
Lym (72 h, time 3 day): 72.6%
MCH (72 h, time 3 day): 21.4 pg
MCHC (72 h, time 3 day): 34.3%
MCV (72 h, time 3 day): 62.4 fL
Mono (72 h, time 3 day): 4%
Neu (72 h, time 3 day): 21.4%
PT (72 h, time 3 day): 13.1 s
Plat (72 h, time 3 day): 116.2 x10_4/uL
RBC (72 h, time 3 day): 614.2 x10_4/ul
Ret (72 h, time 3 day): 5.7%
WBC (72 h, time 3 day): 96.9 x10_2/uL
KIDNEY_L (72 h, time 3 day): 1 g
KIDNEY_R (72 h, time 3 day): 1 g
KIDNEY_TOTAL (72 h, time 3 day): 1.9 g
LIVER (72 h, time 3 day): 9.5 g
A/G (72 h, time 3 day): 0.9
ALP (72 h, time 3 day): 1189.4 IU/L
ALT (72 h, time 3 day): 40.6 IU/L
AST (72 h, time 3 day): 91.6 IU/L
BUN (72 h, time 3 day): 14.4 mg/dL
CRE (72 h, time 3 day): 0.2 mg/dL
Ca (72 h, time 3 day): 10.5 mg/dL
Cl (72 h, time 3 day): 106 meq/L
DBIL (72 h, time 3 day): 0.014 mg/dL
GLC (72 h, time 3 day): 162.2 mg/dL
IP (72 h, time 3 day): 7.4 mg/dL
K (72 h, time 3 day): 4 meq/L
LDH (72 h, time 3 day): 46.6 IU/L
Na (72 h, time 3 day): 142.6 meq/L
PL (72 h, time 3 day): 118.6 mg/dL
RALB (72 h, time 3 day): 2.6 g/dL
TBIL (72 h, time 3 day): 0.03 mg/dL
TC (72 h, time 3 day): 70.8 mg/dL
TG (72 h, time 3 day): 40.2 mg/dL
TP (72 h, time 3 day): 5.4 g/dL
gamma-GTP (72 h, time 3 day): 1 IU/L
TERMINAL_BW ([…], time 7 day): 237.7 g
TERMINAL_BW ([…], time 14 day): 305 g
TERMINAL_BW ([…], time 28 day): 376.6 g
APTT ([…], time 7 day): 16.7 s
Bas ([…], time 7 day): 0%
Eos ([…], time 7 day): 1%
Fbg ([…], time 7 day): 294.8 mg/dL
Hb ([…], time 7 day): 13.9 g/dL
Ht ([…], time 7 day): 40.7%
Lym ([…], time 7 day): 78%
MCH ([…], time 7 day): 21.9 pg
MCHC ([…], time 7 day): 34.2%
MCV ([…], time 7 day): 63.8 fL
Mono ([…], time 7 day): 3%
Neu ([…], time 7 day): 17.8%
PT ([…], time 7 day): 12.9 s
Plat ([…], time 7 day): 131.8 x10_4/uL
RBC ([…], time 7 day): 638.8 x10_4/ul
Ret ([…], time 7 day): 6.6%
WBC ([…], time 7 day): 88.3 x10_2/uL
APTT ([…], time 14 day): 16.9 s
Bas ([…], time 14 day): 0%
Eos ([…], time 14 day): 1.2%
Fbg ([…], time 14 day): 259.4 mg/dL
Hb ([…], time 14 day): 14.6 g/dL
Ht ([…], time 14 day): 41.8%
Lym ([…], time 14 day): 72.4%
MCH ([…], time 14 day): 21.1 pg
MCHC ([…], time 14 day): 34.8%
MCV ([…], time 14 day): 60.5 fL
Mono ([…], time 14 day): 2.8%
Neu ([…], time 14 day): 23.2%
PT ([…], time 14 day): 13 s
Plat ([…], time 14 day): 105.3 x10_4/uL
RBC ([…], time 14 day): 691.2 x10_4/ul
Ret ([…], time 14 day): 4.7%
WBC ([…], time 14 day): 89.3 x10_2/uL
APTT ([…], time 28 day): 18.6 s
Bas ([…], time 28 day): 0.4%
Eos ([…], time 28 day): 1%
Fbg ([…], time 28 day): 255.2 mg/dL
Hb ([…], time 28 day): 15.7 g/dL
Ht ([…], time 28 day): 44.2%
Lym ([…], time 28 day): 79.4%
MCH ([…], time 28 day): 20.8 pg
MCHC ([…], time 28 day): 35.6%
MCV ([…], time 28 day): 58.5 fL
Mono ([…], time 28 day): 2.8%
Neu ([…], time 28 day): 16.2%
PT ([…], time 28 day): 12.6 s
Plat ([…], time 28 day): 90.5 x10_4/uL
RBC ([…], time 28 day): 755.2 x10_4/ul
Ret ([…], time 28 day): 2.8%
WBC ([…], time 28 day): 90.3 x10_2/uL
KIDNEY_L ([…], time 7 day): 1.1 g
KIDNEY_R ([…], time 7 day): 1.1 g
KIDNEY_TOTAL ([…], time 7 day): 2.1 g
KIDNEY_L ([…], time 14 day): 1.3 g
KIDNEY_R ([…], time 14 day): 1.3 g
KIDNEY_TOTAL ([…], time 14 day): 2.6 g
KIDNEY_L ([…], time 28 day): 1.5 g
KIDNEY_R ([…], time 28 day): 1.4 g
KIDNEY_TOTAL ([…], time 28 day): 2.9 g
LIVER ([…], time 7 day): 10.9 g
LIVER ([…], time 14 day): 13.8 g
LIVER ([…], time 28 day): 16.2 g
A/G ([…], time 7 day): 0.9
ALP ([…], time 7 day): 1601.8 IU/L
ALT ([…], time 7 day): 44 IU/L
AST ([…], time 7 day): 83.2 IU/L
BUN ([…], time 7 day): 15 mg/dL
CRE ([…], time 7 day): 0.2 mg/dL
Ca ([…], time 7 day): 10.6 mg/dL
Cl ([…], time 7 day): 105.8 meq/L
DBIL ([…], time 7 day): 0.015 mg/dL
GLC ([…], time 7 day): 174.8 mg/dL
IP ([…], time 7 day): 7.7 mg/dL
K ([…], time 7 day): 4.4 meq/L
LDH ([…], time 7 day): 65 IU/L
Na ([…], time 7 day): 142.5 meq/L
PL ([…], time 7 day): 128.2 mg/dL
RALB ([…], time 7 day): 2.6 g/dL
TBIL ([…], time 7 day): 0.025 mg/dL
TC ([…], time 7 day): 65.8 mg/dL
TG ([…], time 7 day): 65.5 mg/dL
TP ([…], time 7 day): 5.6 g/dL
gamma-GTP ([…], time 7 day): 1 IU/L
A/G ([…], time 14 day): 0.8
ALP ([…], time 14 day): 1468 IU/L
ALT ([…], time 14 day): 39 IU/L
AST ([…], time 14 day): 79.8 IU/L
BUN ([…], time 14 day): 14.8 mg/dL
CRE ([…], time 14 day): 0.2 mg/dL
Ca ([…], time 14 day): 11.1 mg/dL
Cl ([…], time 14 day): 106 meq/L
DBIL ([…], time 14 day): 0.012 mg/dL
GLC ([…], time 14 day): 176.2 mg/dL
IP ([…], time 14 day): 8.1 mg/dL
K ([…], time 14 day): 4 meq/L
LDH ([…], time 14 day): 79.2 IU/L
Na ([…], time 14 day): 143.4 meq/L
PL ([…], time 14 day): 135 mg/dL
RALB ([…], time 14 day): 2.7 g/dL
TBIL ([…], time 14 day): 0.022 mg/dL
TC ([…], time 14 day): 69.2 mg/dL
TG ([…], time 14 day): 86.8 mg/dL
TP ([…], time 14 day): 5.9 g/dL
gamma-GTP ([…], time 14 day): 1 IU/L
A/G ([…], time 28 day): 0.8
ALP ([…], time 28 day): 1096 IU/L
ALT ([…], time 28 day): 44.6 IU/L
AST ([…], time 28 day): 77.6 IU/L
BUN ([…], time 28 day): 16.4 mg/dL
CRE ([…], time 28 day): 0.2 mg/dL
Ca ([…], time 28 day): 11.3 mg/dL
Cl ([…], time 28 day): 105 meq/L
DBIL ([…], time 28 day): 0.024 mg/dL
GLC ([…], time 28 day): 179.2 mg/dL
IP ([…], time 28 day): 7.6 mg/dL
K ([…], time 28 day): 4 meq/L
LDH ([…], time 28 day): 81.4 IU/L
Na ([…], time 28 day): 143.6 meq/L
PL ([…], time 28 day): 126.8 mg/dL
RALB ([…], time 28 day): 2.8 g/dL
TBIL ([…], time 28 day): 0.034 mg/dL
TC ([…], time 28 day): 59 mg/dL
TG ([…], time 28 day): 132 mg/dL
TP ([…], time 28 day): 6.2 g/dL
gamma-GTP ([…], time 28 day): 1 IU/L
